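Where inhibition never reached the appropriate level, the endpoint shown equals the highest concentration tested. Otherwise, values were interpolated linearly from a five-concentration, 48-hour dose response in 96-well plates. GI50 = concentration required for 50% inhibition of growth.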 The source made the active and inactive calls. Cut-off read from the data, not from the text of the source: active = GI50 up to about 1.1 µM and inactive = higher.
How the values were obtained:
Assay in all cases: DTP human tumour cell line panel, 48 h
786-0 = tested on: 786-0
A549 = tested on: A549
ACHN = tested on: ACHN
CAKI-1 = tested on: CAKI-1
DMS-114 = tested on: DMS-114
HCC 2998 = tested on: HCC 2998
HCT-116 = tested on: HCT-116
HCT-15 = tested on: HCT-15
HL-60 = tested on: HL-60
HOP-92 = tested on: HOP-92
IGROV-1 = tested on: IGROV-1
K562 = tested on: K562
KM-20L2 = tested on: KM-20L2
KM12 = tested on: KM12
LOX IMVI = tested on: LOX IMVI
M14 = tested on: M14
MOLT-4 = tested on: MOLT-4
Malme-3M = tested on: Malme-3M
NCI-H226 = tested on: NCI-H226
NCI-H23 = tested on: NCI-H23
OVCAR-3 = tested on: OVCAR-3
OVCAR-4 = tested on: OVCAR-4
OVCAR-5 = tested on: OVCAR-5
RXF 393 = tested on: RXF 393
SF-268 = tested on: SF-268
SK-MEL-28 = tested on: SK-MEL-28
SK-MEL-2 = tested on: SK-MEL-2
SK-MEL-5 = tested on: SK-MEL-5
SK-OV-3 = tested on: SK-OV-3
SN12C = tested on: SN12C
SNB-19 = tested on: SNB-19
SNB-75 = tested on: SNB-75
SNB-78 = tested on: SNB-78
SR = tested on: SR
SW-620 = tested on: SW-620
TK-10 = tested on: TK-10
U-251 = tested on: U-251
UACC-62 = tested on: UACC-62
UO-31 = tested on: UO-31
COLO 205 = tested on: COLO 205
HT-29 = tested on: HT-29
OVCAR-8 = tested on: OVCAR-8
RPMI-8226 = tested on: RPMI-8226
XF498 = tested on: XF498
A498 = tested on: A498
CCRF-CEM = tested on: CCRF-CEM
DLD-1 = tested on: DLD-1
EKVX = tested on: EKVX
HOP-18 = tested on: HOP-18
HOP-62 = tested on: HOP-62
LXFL 529 = tested on: LXFL 529
M19-MEL = tested on: M19-MEL
NCI-H460 = tested on: NCI-H460
NCI-H522 = tested on: NCI-H522
SF-295 = tested on: SF-295
SF-539 = tested on: SF-539
UACC-257 = tested on: UACC-257
DMS-273 = tested on: DMS-273

N#CN1CCC2CC(=O)CCC2C1 (stereo unspecified)
GI50 (786-0): > 100 µM (inactive) | GI50 (A549): > 100 µM (inactive) | GI50 (ACHN): > 100 µM (inactive) | GI50 (CAKI-1): > 100 µM (inactive) | GI50 (DMS-114): > 100 µM (inactive) | GI50 (HCC 2998): > 100 µM (inactive) | GI50 (HCT-116): > 100 µM (inactive) | GI50 (HCT-15): > 100 µM | GI50 (HL-60): > 100 µM (inactive) | GI50 (HOP-92): > 100 µM (inactive) | GI50 (IGROV-1): > 100 µM (inactive) | GI50 (K562): > 100 µM (inactive) | GI50 (KM-20L2): > 100 µM (inactive) | GI50 (KM12): > 100 µM (inactive) | GI50 (LOX IMVI): > 100 µM (inactive) | GI50 (M14): > 100 µM (inactive) | GI50 (MOLT-4): > 100 µM (inactive) | GI50 (Malme-3M): > 100 µM (inactive) | GI50 (NCI-H226): > 100 µM (inactive) | GI50 (NCI-H23): > 100 µM (inactive) | GI50 (OVCAR-3): > 100 µM (inactive) | GI50 (OVCAR-4): > 100 µM (inactive) | GI50 (OVCAR-5): > 100 µM (inactive) | GI50 (RXF 393): > 100 µM (inactive) | GI50 (SF-268): > 100 µM (inactive) | GI50 (SK-MEL-28): > 100 µM (inactive) | GI50 (SK-MEL-2): > 100 µM (inactive) | GI50 (SK-MEL-5): > 10 µM (inactive) | GI50 (SK-OV-3): > 100 µM (inactive) | GI50 (SN12C): > 100 µM (inactive) | GI50 (SNB-19): > 100 µM (inactive) | GI50 (SNB-75): > 100 µM (inactive) | GI50 (SNB-78): > 100 µM (inactive) | GI50 (SR): > 100 µM (inactive) | GI50 (SW-620): > 100 µM (inactive) | GI50 (TK-10): > 100 µM (inactive) | GI50 (U-251): > 100 µM (inactive) | GI50 (UACC-62): > 100 µM (inactive) | GI50 (UO-31): > 100 µM (inactive)

COc1ccc2c([nH]c3cc(O)c(C)cc32)c1CC=C(C)C
GI50 (COLO 205): > 25 µM (inactive) | GI50 (DMS-114): 20.9 µM (inactive) | GI50 (HT-29): 7.24 µM (inactive) | GI50 (IGROV-1): 23.1 µM (inactive) | GI50 (NCI-H226): > 25 µM (inactive) | GI50 (OVCAR-3): 5.32 µM (inactive) | GI50 (OVCAR-4): 22.5 µM (inactive) | GI50 (OVCAR-5): > 25 µM (inactive) | GI50 (OVCAR-8): 4.42 µM (inactive) | GI50 (RPMI-8226): 8.38 µM (inactive) | GI50 (SK-MEL-28): > 25 µM (inactive) | GI50 (SK-MEL-2): > 25 µM (inactive) | GI50 (SK-OV-3): > 25 µM (inactive) | GI50 (SN12C): 5.04 µM (inactive) | GI50 (SNB-19): > 25 µM (inactive) | GI50 (SNB-78): 11.5 µM (inactive) | GI50 (XF498): > 25 µM (inactive)

CCOc1ccc2c(c1)[n+]([O-])c(S(=O)(=O)c1ccc(C)cc1)c(N)[n+]2[O-]
GI50 (786-0): > 100 µM (inactive) | GI50 (A498): > 100 µM (inactive) | GI50 (A549): > 100 µM (inactive) | GI50 (ACHN): > 100 µM (inactive) | GI50 (CAKI-1): > 100 µM (inactive) | GI50 (CCRF-CEM): > 100 µM (inactive) | GI50 (COLO 205): > 100 µM (inactive) | GI50 (DLD-1): > 100 µM (inactive) | GI50 (DMS-114): > 100 µM (inactive) | GI50 (EKVX): > 100 µM (inactive) | GI50 (HCC 2998): > 100 µM (inactive) | GI50 (HCT-116): > 100 µM (inactive) | GI50 (HL-60): > 100 µM (inactive) | GI50 (HOP-18): > 100 µM (inactive) | GI50 (HOP-62): > 100 µM (inactive) | GI50 (HOP-92): > 100 µM (inactive) | GI50 (HT-29): > 100 µM (inactive) | GI50 (IGROV-1): > 100 µM (inactive) | GI50 (K562): > 100 µM (inactive) | GI50 (KM-20L2): > 100 µM (inactive) | GI50 (KM12): > 100 µM (inactive) | GI50 (LXFL 529): > 100 µM (inactive) | GI50 (M14): > 100 µM (inactive) | GI50 (M19-MEL): > 100 µM (inactive) | GI50 (MOLT-4): > 100 µM (inactive) | GI50 (Malme-3M): > 100 µM (inactive) | GI50 (NCI-H226): > 100 µM (inactive) | GI50 (NCI-H23): > 100 µM (inactive) | GI50 (NCI-H460): > 100 µM (inactive) | GI50 (NCI-H522): 49.2 µM (inactive) | GI50 (OVCAR-3): > 100 µM (inactive) | GI50 (OVCAR-4): > 100 µM (inactive) | GI50 (OVCAR-5): > 100 µM (inactive) | GI50 (OVCAR-8): > 100 µM (inactive) | GI50 (RPMI-8226): > 100 µM (inactive) | GI50 (SF-268): > 100 µM (inactive) | GI50 (SF-295): > 100 µM (inactive) | GI50 (SF-539): > 100 µM (inactive) | GI50 (SK-MEL-28): > 100 µM (inactive) | GI50 (SK-MEL-2): > 100 µM (inactive) | GI50 (SK-MEL-5): > 100 µM (inactive) | GI50 (SK-OV-3): > 100 µM (inactive) | GI50 (SNB-19): > 100 µM (inactive) | GI50 (SNB-75): 91.6 µM (inactive) | GI50 (SNB-78): > 100 µM (inactive) | GI50 (SW-620): > 100 µM (inactive) | GI50 (TK-10): > 100 µM (inactive) | GI50 (U-251): > 100 µM (inactive) | GI50 (UACC-257): > 100 µM (inactive) | GI50 (UACC-62): > 100 µM (inactive) | GI50 (UO-31): > 100 µM (inactive)

CCCCCCCC/C=C/CCCCCCCC(=O)N(O)C1CC(n2cc(C)c(=O)[nH]c2=O)OC1CO (stereo unspecified)
GI50 (786-0): 4.46 µM (inactive) | GI50 (A498): 18.3 µM (inactive) | GI50 (A549): 19 µM (inactive) | GI50 (ACHN): 6.03 µM (inactive) | GI50 (CAKI-1): 8.99 µM (inactive) | GI50 (CCRF-CEM): 4.22 µM (inactive) | GI50 (COLO 205): 4.8 µM (inactive) | GI50 (DLD-1): 6.4 µM (inactive) | GI50 (DMS-114): 4.41 µM (inactive) | GI50 (DMS-273): 5.07 µM (inactive) | GI50 (HCC 2998): 10.6 µM (inactive) | GI50 (HCT-116): 8.53 µM (inactive) | GI50 (HCT-15): 4.67 µM | GI50 (HOP-18): 3.65 µM (inactive) | GI50 (HOP-62): 6.25 µM (inactive) | GI50 (HOP-92): 13.8 µM (inactive) | GI50 (HT-29): 10.2 µM (inactive) | GI50 (IGROV-1): 5.38 µM (inactive) | GI50 (K562): 0.488 µM (active) | GI50 (KM-20L2): 3.56 µM (inactive) | GI50 (KM12): 11.3 µM (inactive) | GI50 (LOX IMVI): 4.9 µM (inactive) | GI50 (LXFL 529): 10.6 µM (inactive) | GI50 (M14): 3.55 µM (inactive) | GI50 (M19-MEL): 5.3 µM (inactive) | GI50 (MOLT-4): 4.41 µM (inactive) | GI50 (Malme-3M): 9.71 µM (inactive) | GI50 (NCI-H23): 10.6 µM (inactive) | GI50 (NCI-H460): 3.85 µM (inactive) | GI50 (NCI-H522): 7.76 µM (inactive) | GI50 (OVCAR-3): 7.33 µM (inactive) | GI50 (OVCAR-4): 11.2 µM (inactive) | GI50 (OVCAR-5): 10.4 µM (inactive) | GI50 (OVCAR-8): 11.4 µM (inactive) | GI50 (RPMI-8226): 9.68 µM (inactive) | GI50 (RXF 393): 3.77 µM (inactive) | GI50 (SF-268): 11 µM (inactive) | GI50 (SF-295): 8.28 µM (inactive) | GI50 (SF-539): 11.6 µM (inactive) | GI50 (SK-MEL-28): 4.51 µM (inactive) | GI50 (SK-MEL-2): 13.7 µM (inactive) | GI50 (SK-MEL-5): 7.18 µM (inactive) | GI50 (SK-OV-3): 10.3 µM (inactive) | GI50 (SN12C): 10.6 µM (inactive) | GI50 (SNB-19): 12.9 µM (inactive) | GI50 (SNB-75): 12.1 µM (inactive) | GI50 (SNB-78): 18 µM (inactive) | GI50 (SR): 3.27 µM (inactive) | GI50 (SW-620): 11 µM (inactive) | GI50 (TK-10): 10.8 µM (inactive) | GI50 (U-251): 4.89 µM (inactive) | GI50 (UACC-257): 13.2 µM (inactive) | GI50 (UACC-62): 2.64 µM (inactive) | GI50 (UO-31): 3.96 µM (inactive)
